Test results: PubChem BioAssay (NCI)
“And” between values parts separate entries of the source, which are not always exact repeats. Equal values may be shown once.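 Results reflect a 48-hour exposure of cells in 96-well plates to compound at five concentrations. GI50 marks 50% less growth. The concentration for full growth arrest is given as TGI.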

Assays:
Assay in all cases: NCI anticancer screen, dose series, 48 h
BT-549 breast = system: BT-549 breast
DU-145 prostate = system: DU-145 prostate
HCT-116 colon = system: HCT-116 colon
HL-60(TB) leukemia = system: HL-60(TB) leukemia
HT29 colon = system: HT29 colon
MDA-MB-231 breast = system: MDA-MB-231 breast
NCI-H460 lung = system: NCI-H460 lung
SK-MEL-2 melanoma = system: SK-MEL-2 melanoma
DMS 273 small cell lung = system: DMS 273 small cell lung
SNB-78 CNS = system: SNB-78 CNS

Structure (SMILES) | GI50 (BT-549 breast) | TGI (BT-549 breast) | GI50 (DU-145 prostate) | TGI (DU-145 prostate) [µM] | GI50 (HCT-116 colon) | TGI (HCT-116 colon) | GI50 (HL-60(TB) leukemia) | TGI (HL-60(TB) leukemia) [µM] | GI50 (HT29 colon) | TGI (HT29 colon) [µM] | GI50 (MDA-MB-231 breast) | TGI (MDA-MB-231 breast) [µM] | GI50 (NCI-H460 lung) | TGI (NCI-H460 lung) [µM] | GI50 (SK-MEL-2 melanoma) | TGI (SK-MEL-2 melanoma) [µM] | TGI (DMS 273 small cell lung) [µM] | TGI (SNB-78 CNS) [µM]
COc1cc(C(=O)NN=C2c3ccccc3-c3ccccc32)cc(OC)c1OC | 3.78 µM | 28.9 µM | 5.34 µM | 32.8 | 2.71 µM | > 100 µM | 2.21 µM | 7.12 | 2.32 µM | 56.6 | 2.93 µM | 20 | 3.17 µM | 26.6 | 2.84 µM | 12.7 | – | –
Nc1nc(N)c2c(n1)CCC(S(=O)(=O)c1ccc3ccccc3c1)C2 (configuration not stated) | – | > 100 µM | – | > 100 | – | > 100 µM | – | 23.6 | – | > 51.2 | – | > 60.5 | – | > 67 | 9.79 µM | > 100 | – | –
N#CCCN(c1ccc(C=O)cc1)S(=O)(=O)c1ccccc1 | – | – | – | – | – | > 100 µM | – | > 100 | – | > 100 | – | – | – | > 100 | – | > 100 | > 100 | –
O=C(CN1CCN(C(=O)c2ccco2)CC1)Nc1ccc(Cl)cc1C(=O)c1ccccc1Cl | 2.62 µM | 13.1 µM | 15.5 µM | 35.2 | 13 µM | 26.9 µM | 1.31 µM | 2.95 | 6.23 µM | 22.3 | 9.51 µM | 46.1 | 13.9 µM | 29 | 3.14 µM | 17.5 | – | –
O=C(CCN1CCCN(c2cnc3ccccc3n2)CC1)c1csc2ccccc12 | 18.4 µM | 32.3 µM | 16.6 µM | 32.4 | 16.5 µM | 30.1 µM | 27.2 µM | 59.7 | 13 µM | 28.2 | 21.2 µM | 37 | 32.8 µM | > 100 | 27.3 µM | 76.5 | – | –
CC#CC#C/C(=C/C=CC(=O)OC)SC | – | > 100 µM | – | > 100 | – | > 100 µM | – | > 100 | – | > 100 | – | > 100 | – | > 100 | – | > 100 | – | –
COC(=O)c1c2c(c(C)[n+]([O-])c1C)C(=O)C(NCc1ccc(O)cc1)=CC2=O | 1.43 µM | 2.91 µM | 1.75 µM | 3.19 | 0.333 µM | 1.24 µM | 2.46 µM | 5.69 | 0.715 µM | 4.84 | 1.38 µM | 4.34 | 1.58 µM | 3.35 | 1.79 µM | 3.72 | – | –
COc1cc(N2CCC(N)CC2)ccc1Nc1ncc(Cl)c(-c2c[nH]c3ccccc23)n1 | 1.56 µM | 3.39 µM | 0.34 µM | 1.88 | 0.422 µM | 1.78 µM | 0.0412 µM | 2.75 | 0.0343 µM | 1.43 | 1.22 µM | 2.79 | 0.235 µM | 1.66 | 0.23 µM | 0.982 | – | –
O=C(Nc1cccc(-n2cc(-c3ccncc3)c(-c3ccc(Cl)c(O)c3)n2)c1)Nc1ccc(Cl)c(Cl)c1 | 1.7 µM | 16.1 µM | 1.5 µM | > 32.5 | 1.19 µM | 5.73 µM | 0.515 µM | > 32.5 | 4.89 µM | > 32.5 | 1.18 µM | 8.33 | 0.993 µM | 3.57 | 1.03 µM | 2.64 | – | –
CCN(CC)C(=O)CC12CCCCC1=Nc1ccccc12 (configuration not stated) | – | – | – | – | – | > 100 µM | – | > 100 | – | > 100 | – | – | – | > 100 | – | > 100 | > 100 | > 100
O=C(CC(=O)c1cccc([N+](=O)[O-])c1)C(=O)Nc1ccccc1 | – | – | – | – | – | > 100 µM | – | > 100 | – | > 100 | – | – | – | > 100 | – | > 100 | > 100 | > 100
CN(C)C1CN(C(=O)c2cc(-c3ccc4ncnc(N5CCc6cc(F)c(Cl)cc65)c4c3)cnc2N)C1 | 0.436 µM | 4.02 µM | 0.594 µM | > 100 | 0.728 µM | – | 0.151 µM | 1.49 | 0.543 µM | > 100 | 0.931 µM | > 100 | 0.574 µM | > 100 | 1.09 µM | 3.77 | – | –
CCOc1ccc2c(c1)C(=O)c1c-2n(CCCN=[N+]=[N-])c(=O)c2cc([N+](=O)[O-])ccc12 | 13.1 µM | > 100 µM | 3.86 µM | 38.6 | 1.82 µM | > 100 µM | 28.5 µM | > 100 | 21.4 µM | > 100 | 45 µM | > 100 | 0.284 µM | 10.7 | 14.4 µM | 38.2 | – | –
Cc1ccccc1-n1c(CCl)nc2ccc(Br)cc2c1=O | – | – | – | – | – | 21.3 µM | – | 17 | – | 16.7 | – | – | – | 28 | – | 32.5 | > 100 | 52.2
Cc1[nH]nc(C(=O)N/N=C/c2ccccc2Cl)c1N=NN(C)C | – | 12.8 µM | – | > 23.4 | – | > 100 µM | – | > 100 | – | > 100 | – | > 100 | – | > 100 | – | > 100 | – | –
CC(C)C1=CC2=C(C(=O)C1=O)C13CCCC(C)(C)C1CC2OC3=O (configuration not stated) | – | 37.4 µM | – | 44.9 | – | 33.2 µM | – | 36.3 | – | 26.3 | – | 42.6 | – | 71.9 | – | 47.4 | – | –
CCN(/N=C1\CC2C=CCN(C2)C(=O)Cc2c1[nH]c1ccccc21)S(=O)(=O)c1ccc(C)cc1 (configuration not stated) | – | – | – | – | – | > 100 µM | – | > 100 | – | – | – | – | – | – | – | > 100 | > 100 | –
NC1(C(=O)N[C@@H](CCO)c2ccc(Cl)cc2)CCN(c2ncnc3[nH]ccc23)CC1 | 0.366 µM and 0.624 µM | > 5.01 µM and 13 µM | > 2.74 µM and 29.7 µM | > 100 | 2.75 µM and 10.7 µM | > 10 µM and 78.6 µM | > 4.63 µM and 24.2 µM | > 67.8 | 2.5 µM and 5.26 µM | > 100 | > 3.44 µM and 41 µM | > 100 | 0.679 µM and 1.74 µM | > 100 | > 4.51 µM and 16.3 µM | > 82.8 | – | –
